# Tests used:
# [1] = Acute toxicity in mice; format: in vivo; conditions: observed for 3 days
# Experimental: Acute toxicity was evaluated at three different doses of Å6 (1500 mg/kg, 500 mg/kg and 250 mg/kg). Mice (n=6) were infused (i.v,) with a bolus of Å6 over 5-10 minutes and observed for 3 days.
# [2] = system: MDA-MB-231; assay: In vitro proliferation, MDA-MB-231 cells; format: cell-based, human
# Experimental: (§1) Å6 was also tested for its ability to inhibit the proliferation of cells other than endothelial cells in vitro.
# [3] = system: MDA-MB-231 human breast cancer cells; assay: Matrigel invasion assay, MDA-MB-231 cells; format: cell-based; conditions: FIG. 7
# Experimental: (§2) Several peptides were tested for anti-invasive capacity in a Matrigel® invasion assay system as indicated above (Kleinman et al., supra; Parish et al., supra). Several invasive human tumor lines (PC-3, MDA-MB-231) and non-human tumors (3LL, Mat B-III) were examined. The rat breast cancer line Mat B III and the human prostate cancer line PC-3 were initially used.
# (§3) Tumor cells (5×10^5/mL, in a volume of 200 μL) in serum-free RPMI 1640 medium were added to a disposable transwell invasion chamber coated with Matrigel® (Becton Dickinson, Lincoln Park, N.J.). The invasion chambers were placed in 24-well tissue culture plates filled with serum-free RPMI-1640 and the plates were placed in an atmosphere of 5% CO2 in humidified air at 37° C. for 48-72 hours. The chambers were then removed, inverted, and the cells which had invaded (and now appeared on the bottom face of the invasion chamber) were fixed and stained using Diff-Quick® (Scientific Products). Cells were counted in 10 different fields on each filter and an average obtained.
# [4] = system: bFGF-induced angiogenesis; assay: Chick CAM angiogenesis assay; format: in vivo
# Experimental: Major vessels were quantitated at this time.
# A: Control CAM; B: CAM treated with 1.2 μg/disk of Å6.
# Å6 was tested for its effect on bFGF-induced angiogenesis in a 7 day old chick CAM assay.
# [5] = system: SMC (aortic smooth muscle cells); assay: In vitro proliferation, SMC; format: cell-based
# Experimental: as §1
# [6] = mouse, in vivo, iv, 37.5 mg/kg
# Experimental: Protein binding studies are presently underway.
# Pharmacokinetic analysis was carried out by Gilbert Lam, MicroConstants.
# [7] = system: PC-3 and Mat B III tumor cells
# [8] = system: MDA-MB-231 human breast cancer cells; assay: MDA-MB-231 GFP xenograft model; format: in vivo, mice
# Experimental: Nude mice (n=5 per group) were challenged with 2×10^5 tumor cells co-injected into the mammary fat pad of the mice with Matrigel. […] Control animals received vehicle (PBS) only.
# These cells were first transfected with green fluorescent protein (GFP) to simplify the detection and visualization of metastases.
# The tumor cells (5×10^5) were suspended in 0.1 mL of Matrigel and injected into the mammary fat pad of female BALB/c nu/nu mice. Treatment (75 mg/kg/day) was initiated when the tumors were palpable (10 mm^3, approximately 4 weeks after inoculation of tumor cells) and continued for 5 weeks. Tumor volumes were determined twice per week using caliper measurements. The animals were euthanized at the end of the 5th week of treatment, necropsied and examined for macroscopic metastases. Sections prepared from LNs, lung, liver, spleen and kidney were analyzed for microscopic dissemination of tumor cells using fluorescence microscopy to detect GFP-positive foci.
# Macroscopic metastases were enumerated and their size measured with calipers (Table I below). Microscopic dissemination of tumor cells was quantitated by counting GFP-positive foci in representative sections from lung, liver, kidney and spleen.
# Macrometastases were determined by excising involved LNs and determining the tumor volume by caliper measurement. Microscopic tumor foci were quantitated by sectioning and fixing target organs, then visualizing GFP-labeled cells using fluorescence microscopy (at 200× enlargement). The number of disseminated tumor foci represents the average of 5 fields per section from 3 different sections per organ.
# [9] = system: MDA-MB-231 human breast cancer cells; assay: MDA-MB-231 GFP xenograft model; design: species or system mice; conditions: mouse, in vivo
# [10] = system: HepG2; assay: In vitro proliferation, HepG2 cells; format: cell-based
# Experimental: as §1
# [11] = system: 3LL; assay: Matrigel invasion assay, 3LL cells; format: cell-based, mouse; conditions: all the cell lines tested
# Experimental: as §2, §3
# [12] = target: scuPA-suPAR (Homo sapiens, UniProt P00749); assay: Activation of plasminogen by scuPA-suPAR with small chromogenic substrates; format: biochemical
# [13] = system: human prostate cancer line PC-3; assay: Matrigel invasion assay, PC-3 cells; format: cell-based; conditions: 5 μM (FIG. 1, FIG. 2)
# Experimental: as §2, §3
# [14] = average of 5 fields per section from 3 sections
substance,measurement,setting,value
"Ac-KPSSPPEE-NH2 [Å6, CH3CO-Lys-Pro-Ser-Ser-Pro-Pro-Glu-Glu-NH2]",overt toxicity,"[1]; 1500, 500 and 250 mg/kg i.v. bolus over 5-10 minutes",No evidence for overt toxicity
same,survival after acute dosing,"[1]; 1500, 500 and 250 mg/kg i.v. bolus",all the animals survived
same,"anti-proliferative effect, MDA-MB-231",[2],No anti-proliferative effects
same,invasion of MDA-MB-231 cells through Matrigel,[3],inhibits the invasion
same,bFGF-induced angiogenesis (major vessel formation) in CAM,"[4]; 7 day old chick CAM, 4 days",inhibits angiogenesis
same,branching morphogenesis in CAM,"[4]; qualitative, stereomicroscopic images",inhibited branching morphogenesis
same,"anti-proliferative effect, SMC",[5],No anti-proliferative effects
same,clearance,[6],33.3 mL/min/kg
same,half-life,[6],12 min
same,cytotoxicity to the cells,[7],not cytotoxic
same,inhibition of cell proliferation,[7]; tumor cells of the invasion assay,nor did it inhibit cell proliferation
same,growth of primary challenge tumors,"[8]; IP, 1 mg bid, started when tumor nodules palpable (FIG. 15)",inhibits the growth
same,"Disseminated GFP-positive Tumor Foci, Liver",[8]; [14],3.11 ± 0.14
same,"Disseminated GFP-positive Tumor Foci, Lung",[8]; [14],2.09 ± 0.30
same,"Disseminated GFP-positive Tumor Foci, Spleen",[8]; [14],28.30 ± 2.80
same,"Macroscopic Metastases, Lungs, Number",[8]; end of 5th week of treatment,1 ± 0
same,"Macroscopic Metastases, Lymph Nodes, Number",[8]; end of 5th week of treatment,1.2 ± 0.2
same,"Macroscopic Metastases, Lymph Nodes, Size",[8]; end of 5th week of treatment,7 ± 3 mm^3
same,single foci versus larger colonies in organ sections,[8]; liver and lungs,greater number of single foci
same,Factor VIII-positive hot spots in tumor sections,"[8]; mouse, in vivo",decrease
same,TUNEL-positive foci in tumor sections,"[8]; mouse, in vivo",significant increase
same,efficacy on tumors staged to 50-100 mm^3 prior to initiating treatment,[9],ineffective
same,"anti-proliferative effect, HepG2",[10],No anti-proliferative effects
same,invasion of 3LL cells through Matrigel,[11],inhibited
same,effect on activation of plasminogen by scuPA-suPAR,[12],did not affect
same,in vitro invasion of PC-3 cells in a Matrigel system,[13],inhibited the invasion
